Results on 1 molecule are retold here after patent US5242945A, “Tetronic and thiotetronic acid derivatives as phospholipase A2 inhibitors” (American Home Products Corporation, priority 1991, dated 1993).

For experiment [1], the system named is LTB4 biosynthesis in purified human neutrophils. Nature of the experiment: LTB4 biosynthesis in human polymorphonuclear neutrophils (in vitro phospholipase A2 assay). It is filed as cell-based. Particulars: Neutrophil, human PMN. The procedure: (§1) The compounds of the invention are tested in an in vitro phospholipase A2 assay to determine the ability of the compounds to inhibit the biosynthesis of platelet-activating factor and LTB4 in purified human neutrophils.
(§2) A leukocyte enriched blood sample obtained from a healthy donor is procured by leukophoresis using a Haemonetics model 30+ blood processor (Biological Specialties, Inc., Lansdale, Penn.). The top "platelet-rich" layer is removed after a low speed spin (35 xg, 15 min, 25° C.) of the sample. The remaining cell suspension is centrifuged (400 xg, 10 min, 25° C.) to sediment the remaining cells. The supernatant is discarded and the cell pellet resuspended in 120 ml HBSS (without Ca^++ /Mg^++). The cell suspension is subjected to ficoll-hypaque sedimentation (Histopaque 1077, 400 xg, 30 min, 25° C.). Contaminating erythrocytes are lysed by hypotonic shock (1 min). The cells are then washed once with 40 ml of HBSS and resuspended with HBSS (without Ca^++ /Mg^++) to a concentration of 2.5×10^7 cells/ml for further use. Greater than 95% purity is obtained, as assessed by microscopic examination.
(§3) One ml of human PMN (2.5×10^7 cells/ml) is incubated with vehicle or drugs (10 μl) for 10 minutes at 30° C. After preincubation, an equal volume of HBSS (1 ml) containing 2.4 mM CaCl2, 6 μM calcium ionophore A23187 and 50 μCi [^3 H]-acetate is then incubated at 30° C. for 15 minutes. An aliquot (100 μl) of the reaction mixture is taken out and mixed with 900 μl of 15% ethanol. LTB4 is extracted by using solid phase extraction on reverse phase C18 columns to remove excess [^3 H]-acetate and PAD. The C18 column is prewashed once with 2 ml of ethanol and water. The sample aliquot is acidified with 0.1N HCl to pH 3 before applying to the column. The column is then washed with 2 ml of water followed by 2 ml of 15% ethanol and 2 ml of petroleum ether to remove excess labeled acetate. The sample is eluted with 2 ml of ethyl acetate. The collected samples are dried with nitrogen and resuspended in 0.5 ml RIA buffer. The quantity of LTB4 in the sample is obtained from RIA determination. For PAF determination, the reaction is terminated by addition of 5 ml chloroform:methanol:acetic acid (2:1:0.04, v/v/v). [^3 H]-PAF is obtained by Bligh and Dyer extraction. The chloroform phase is removed and dried under nitrogen. The residue is redissolved in 75 μl of chloroform:methanol (80:20, v/v). [^3 H]-PAF is resolved from other phospholipids by TLC on RPC18 plates with a solvent system of chloroform:methanol:water (2:3:1, v/v/v) and is quantitated using a Berthold automated TLC linear analyzer.
(§4) Data presented are the mean +/- s.d. of the values relative to control A23187 stimulated cells for each experiment assayed in triplicate. Percent inhibition when used is calculated as:
(§5) % Inhibition=100-[(x.div.Control)×100].
(§6) Dose response analysis is performed by non-linear regression analysis for curve fitting and IC50 determination.

Experiment [2] has as its system 5-lipoxygenase (LTC4). Nature of the experiment: resident murine peritoneal macrophage assay, LTC4. It is filed as cell-based, mouse (Swiss Webster). Particulars: Mus musculus, Peritoneal macrophage; zymosan stimulation; read-out: LTC4 zymosan IC50. The protocol:
The ability of the compounds of the invention to act as inhibitors of the enzymes 5-lipoxygenase and cyclooxygenase is measured in the resident murine peritoneal macrophage assay.
Resident peritoneal macrophages are collected from female Swiss Webster mice (49 days old, 20-25 gms, Buckshire) by lavaging with 7-8 ml Hanks Balanced Salt Solution (HBSS) without Ca^++ and Mg^++ (GIBCO). The lavage fluid from several mice is pooled and centrifuged at 4° C. for 10 minutes at 400 xg.
Residual serum and cellular debris are removed from the monolayers by washing 3× with 2 ml HBSS containing Ca^++ and Mg^++. Macrophages are preincubated for 5 minutes with 1 ml serum-free M199 containing 10 μl dimethyl sulfoxide (DMSO) vehicle or test compound prior to cell activation with zymosan ([…]) or arachidonic acid (AA) (2 μM). After 2 hours, the supernatants are removed and either assayed for LTC4 and PGE2 by radioimmunoassay (RIA) directly or stored at -20° C. In all cases, results are expressed as ng metabolite/4×10^6 cells.
Raw data (dpm) may be stored directly onto an "Autostart" tape using the HP85 in room C-096. The raw data are converted to ng metabolite/4-10^6cells using the standard curve by a "RIANAL" program (HP85) or a "NONLIN" program (HP9816). Results are then expressed as percent inhibition of zymosan induced, leukotriene or prostaglandin synthesis (control) using the equation: [formula]

Experiment [3] deals with platelet-activating factor (PAF) biosynthesis in human polymorphonuclear neutrophils (PMN). In words: platelet-activating factor biosynthesis in human polymorphonuclear neutrophils (in vitro phospholipase A2 assay). It is filed as cell-based. The settings on record: Polymorphonuclear neutrophil, human PMN. The procedure:
as §1, §2, §3, §4, §5, §6

Experiment [4] concerns the target T1, human synovial fluid PLA2 (Homo sapiens, UniProt P14555).
T1 construct: Purified human synovial fluid; from tissue; host or cells: human synovial fluid
T1 sequence (P14555 21-144): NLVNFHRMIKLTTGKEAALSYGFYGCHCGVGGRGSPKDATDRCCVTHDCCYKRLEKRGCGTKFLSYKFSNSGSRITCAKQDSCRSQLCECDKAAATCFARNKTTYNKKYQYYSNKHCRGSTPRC
In words: in vitro isolated phospholipase A2 assay, human synovial fluid PLA2. It is filed as biochemical. In a few lines: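 PLA2 from semipurified human platelet acid extract or purified human synovial fluid, preincubated 30 min at room temperature with compound. ³H-arachidonate-labelled E. coli substrate then added in Tris-HCl pH 7.5, with enzyme giving about 12% hydrolysis. Reaction ran 10 min at 37° C; released arachidonic acid recovered on NH2 columns and measured by β-counting.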

On to `CCCCCCCCCC(=O)C1=C(O)COC1=O` [Example 1, 4-Hydroxy-3-(1-oxodecyl)-2(5H)-furanone], for which the inhibition at 10 µM came to 37% in experiment [1] (10 μM); 13% in experiment [3] (10 μM); 35.1% in experiment [4] (at 10 μM, + values given without explanation, read-out: % Inhibition HSF (human synovial fluid)). For the same molecule, the inhibition at 25 µM in experiment [1] (25 μM) came to 46%; in experiment [3] (25 μM), 32%. The IC50 was 2 µM in experiment [2] and 10.8 µM in experiment [4] (Table IV, read-out: IC50 HSF (human synovial fluid)). For the same molecule, in experiment [3] (50 μM), at 50 µM the inhibition was 68%.

As usually defined, the inhibition is how much of the control response was suppressed. As a reminder, the IC50 is the point on the concentration scale where inhibition reaches its midpoint.
